Source: article PMC4156869 (Journal of the American Chemical Society, 2014)

Molecular target: T1, GalK2 (N-acetyl-galactosamine kinase) (Homo sapiens, UniProt Q01415)
T1 sequence (Q01415 1-458): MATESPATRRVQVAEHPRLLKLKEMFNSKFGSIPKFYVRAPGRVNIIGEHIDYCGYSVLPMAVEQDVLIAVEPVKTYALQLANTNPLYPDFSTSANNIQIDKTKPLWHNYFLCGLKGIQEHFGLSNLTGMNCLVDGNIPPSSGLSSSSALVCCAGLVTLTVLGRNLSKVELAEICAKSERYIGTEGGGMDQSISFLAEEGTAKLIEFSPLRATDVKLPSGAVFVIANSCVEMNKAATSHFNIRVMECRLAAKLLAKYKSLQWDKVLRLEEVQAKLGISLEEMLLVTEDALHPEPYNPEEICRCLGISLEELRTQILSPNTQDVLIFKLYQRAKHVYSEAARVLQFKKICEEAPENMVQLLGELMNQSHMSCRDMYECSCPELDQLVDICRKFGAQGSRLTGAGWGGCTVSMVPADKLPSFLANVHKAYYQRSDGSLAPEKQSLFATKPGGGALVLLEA
Experiment: […]gamma-ATP phosphorylation, Dowex column, scintillation counting
Type: biochemical
Details: 40 mM sugar, 5 mM ATP, 10 mM MgCl2, 50 mM Tris HCl pH 8.0, 37 °C

Row | Compound | [32P]gamma-ATP phosphorylation, Dowex column, scintillation counting
1 | CC(=O)N[C@H]1C(O)O[C@H](CO)[C@@H](O)[C@@H]1O (some centres unmarked) [GlcNAc] | GalK2 readily phosphorylated both GalNAc and GlcNAc
2 | CC(=O)N[C@H]1C(O)O[C@H](CO)[C@H](O)[C@@H]1O (some centres unmarked) [GalNAc] | GalK2 readily phosphorylated both GalNAc and GlcNAc
